# US20070009956A1 (Council of Scientific and Industrial Research, priority 2003, published 2007)
# Numbering of substitutions follows the chain as printed. “Also recorded” adds a separate entry of the source. Counter-ions that a name gives are not always drawn.
# Legend:
# α-crystallin [1] = molecular target: T1, α-crystallin (Bos taurus, UniProt P02470+P02510); assay: Circular dichroism spectra; set-up: species or system calf
# T1 construct: α-Crystallin was purified from calf eye lenses previously described (24); from tissue; host or cells: calf eye lenses
# T1 sequence (P02470 1-173): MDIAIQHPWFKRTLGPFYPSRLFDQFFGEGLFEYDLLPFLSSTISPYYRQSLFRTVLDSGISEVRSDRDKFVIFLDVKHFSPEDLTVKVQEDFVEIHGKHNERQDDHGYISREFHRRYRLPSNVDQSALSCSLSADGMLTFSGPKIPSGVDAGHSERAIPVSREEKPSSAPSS
# T1 sequence (P02510 1-175): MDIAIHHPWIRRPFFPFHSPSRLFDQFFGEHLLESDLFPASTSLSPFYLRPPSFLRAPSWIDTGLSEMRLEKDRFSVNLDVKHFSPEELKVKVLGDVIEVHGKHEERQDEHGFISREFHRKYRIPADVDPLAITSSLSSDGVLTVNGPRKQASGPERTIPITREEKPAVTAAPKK
# Protocol: Circular dichroism spectra were recorded using a Jasco J-715 Spectropolarimeter. All spectra are the average of 4 accumulations.
# R120G αB-crystallin = molecular target: T2, R120G αB-crystallin (Homo sapiens, UniProt P02511, R120G); assay type: biochemical; conditions: 37° C., 0.5:1 ratio to insulin, 300 mM Arg.HCl; negative protection without
# T2 sequence (P02511 1-175 R120G): T1 sequence (P02510 1-175) with A40T, I61F, R120G, A132T, A152V
# Protocol: (§1) All chaperone assays were carried out in 10 mM phosphate buffer. pH 7.4, containing 100 mM NaCl (Buffer A). […] Insulin (0.2 mg/ml) was then added and reduction of insulin was initiated by adding 20 ρL of 1 M DTT to 1.2 ml of the sample. The extent of aggregation of insulin was measured as a function of time by monitoring 90° scattering at 465 nm using a Hitachi F-4000 fluorescence spectrophotometer. The excitation and emission band passes were set at 3 nm.
# α-crystallin [2] = molecular target: T1, α-crystallin; assay: Intrinsic tryptophan fluorescence; set-up: species or system calf; conditions: 37° C., in the presence of Arg.HCl
# Protocol: Fluorescence spectra were recorded using a Hitachi F-4000 Fluorescence Spectrophotometerequipped with a thermostated cuvette holder. All the studies were performed at 37° C. All spectra were recorded in the corrected spectrum mode. The nirinsic tryptophan fluorescence spectra of α-crystllin (0.2 mg/ml) in Buffer A alone or in the buffer containing the required concentrations of Arg.HCl were recorded by exciting the sample at 295 nm with the excitation and emission band passes set at 3 nm.
# insulin = assay: DTT-induced aggregation of insulin without α-crystallin; assay type: biochemical; conditions: 37° C., no α-crystallin
# Protocol: as §1
# α-crystallin [3] = molecular target: T1, α-crystallin; assay: Glycerol gradient sedimentation; set-up: species or system calf
# Protocol: Glycerol gradient centrifugation was carried out essentially as described by Lambert et al. (43). α-Crystallin, α-A- or α-B-crystallin (2 mg/ml) was incubated in 50 mM Tris HCl buffer (pH 7.4) containing 100 mM NaCl, 1 mM EDTA alone or in the presence of 300 mM Arg.HCl for 2 hours at 37° C. The samples (0.5 ml) were loaded on top of a 12 ml linear grddient of glycerol (10-40%) made in 50 mM Tris-HCl buffer, pH 7.4, containing 100 mM NaCl and 1 mM EDTA. Arg.HCl-treated α-crystllin samples were run in the gradient also containing 300 mM Arg.HCl. The tubes were centriflged for 18 hours at 30000 rpm in a Beckman SW41 rotor at 4° C. Fractions (0.3 ml) were withdrawn from the top using a Haake-Buchler Auto Densi-Flowt HC gradient former/remover and optical density at 280 nm of the fractions were measured using a Shimadzu W-1601 spectrophotometer. To estimate the molecular masses of the α-crystallin samples, proteins with defined molecular masses such as thyroglobulin (669 kDa), catalase (240 kDa) and aldolase (158 kDa) were used.
# α-crystallin [4] = molecular target: T1, α-crystallin; assay: ANS binding fluorescence; set-up: species or system calf; conditions: 37° C., 100 mM Arg.HCl
# Protocol: To study the binding of the hydrophobic probe, ANS, to α-crystallin, 12 uL of 10 mM methanolic solution of ANS was added to 1.2 ml of a 0.5 mg/ml solution of α-crystallin in Buffer A alone or in the buffer containing the required concentrations of Arg.HCl. The samples were excited at 365 nm and emission spectra recorded from 400-600 nm at 37° C. […] All spectra were corrected for the respective blanks. Spectra were recorded in the corrected spectrum mode.
# [5] = molecular target: T3, recombinant human αB-crystallin (Homo sapiens, UniProt P02511); assay: DTT-induced aggregation of insulin, chaperone-like activity of αB-crystallin; assay type: biochemical; conditions: 37° C., 1:4 (w/w) to insulin
# T3 construct: made in house; host or cells: Escherichia coli
# T3 sequence (P02511 1-175): T1 sequence (P02510 1-175) with A40T, I61F, A132T, A152V
# Protocol: as §1
# [6] = molecular target: T4, calf eye lens α-crystallin (Bos taurus, UniProt P02470+P02510); assay: DTT-induced aggregation of insulin, chaperone-like activity of α-crystallin; conditions: for protection offered by α-crystallin: 25° C., α-crystallin to insulin 1:1 (w/w); for effect on the chaperone-like activity of α-crystallin: α-crystallin 0.1 mg/ml, insulin 0.2 mg/ml; for percent protection offered by α-crystallin: 36% in the absence of Lys.HCl
# T4 sequence (P02470 1-173): T1 sequence (P02470 1-173)
# T4 sequence (P02510 1-175): T1 sequence (P02510 1-175)
# Protocol: as §1
# [7] = molecular target: T5, recombinant human αA-crystallin (Homo sapiens, UniProt P02489); assay: DTT-induced aggregation of insulin, chaperone-like activity of αA-crystallin; assay type: biochemical; conditions: 37° C., 1:2 (w/w) to insulin
# T5 construct: made in house; host or cells: Escherichia coli
# T5 sequence (P02489 1-173): T1 sequence (P02470 1-173) with I3V, A4T, E91D, S142C, P147Q, S148T, V150L, G153T, S155A, S168T
# Protocol: as §1
# R116C αA-crystallin = molecular target: T6, R116C αA-crystallin (Homo sapiens, UniProt P02489, R116C); assay type: biochemical; conditions: 500 mM, data not shown
# T6 sequence (P02489 1-173 R116C): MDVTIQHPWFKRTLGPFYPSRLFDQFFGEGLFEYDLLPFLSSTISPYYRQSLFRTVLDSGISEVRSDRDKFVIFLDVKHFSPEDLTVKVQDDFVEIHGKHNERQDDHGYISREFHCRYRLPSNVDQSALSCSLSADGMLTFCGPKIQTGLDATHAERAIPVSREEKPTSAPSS
# α-crystallin [8] = molecular target: T1, α-crystallin; assay: Thermally induced aggregation of ξ-crystallin at 43° C., chaperone activity of α-crystallin; assay type: biochemical, calf; conditions: 1:4 (w/w) α- to ξ-crystallin, preincubation with 100 mM Arg.HCl, 53% without
# Protocol: Chaperone activity measurement of α-crystallin towards the thermal aggregation of ε-crystallin was performed as described in our earlier study (25). Buffer A either in the absence or in the presence of α-crystallin (0.025 mg/ml) and required concentrations of Arg.HCl was incubated at 43° C. for 3 min in the thermostated cuvette holder of the fluorescence spectrophotometer. ε-Crystallin was then added to a final concentration of 0.1 mg/mL The extent of aggregation was monitored as a function of time by measring the scalr of 465 nm light as descnbed above, […]
# Hsp 16.3 = Hsp 16.3 (Mycobacterium tuberculosis, UniProt P9WMK1); conditions: Gdn.HCl-induced perturbation of structure; cited from earlier work
# Chain of Hsp 16.3 (P9WMK1 whole entry): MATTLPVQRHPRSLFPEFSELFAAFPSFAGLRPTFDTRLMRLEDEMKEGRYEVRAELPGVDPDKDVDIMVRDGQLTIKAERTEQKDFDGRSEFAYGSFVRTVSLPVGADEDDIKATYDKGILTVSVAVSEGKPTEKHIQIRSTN
# α-crystallin [9] = molecular target: T7, α-crystallin (Homo sapiens, UniProt P02489+P02511); conditions: 0.8-1.0 M Gdn.HCl; cited from earlier work
# T7 sequence (P02489 1-173): T6 sequence (P02489 1-173 R116C) with C116R
# T7 sequence (P02511 1-175): T1 sequence (P02510 1-175) with A40T, I61F, A132T, A152V
# diabetic rats = conditions: rat, in vivo; cited from earlier work
# Shumiya cataract rats = conditions: fed orally; cited from earlier work
smiles,measurement,setting,value
"Cl.N=C(N)NCCCC(N)C(=O)O (racemic) [DL-Arg.HCl, DLarginine hydrochloride]","far-UV CD spectra, secondary structure of α-crystallin","α-crystallin [1]; 37° C., DL-Arg.HCl",is not altered
"Cl.N=C(N)NCCC[C@H](N)C(=O)O [Arg.HCl, Arginine hydrochloride]",extent of protection by R120G αB-crystallin,R120G αB-crystallin,~75%
same,near-UV CD spectra of α-crystallin,"α-crystallin [1]; 37° C., 100, 200, 300 mM Arg.HCl, region 270-290 nm",subtle conformational changes at the tertiary structural level
same,intrinsic tryptophan fluorescence spectrum of α-crystallin,α-crystallin [2],did not change considerably
same,"aggregation of insulin, additive alone",insulin,significantly increased aggregation
same,half-width of the sedimentation profile of α-crystallin,"α-crystallin [3]; 300 mM Arg.HCl, 8.75 in the absence",6.25 x-axis units
same,molecular mass of α-crystallin,"α-crystallin [3]; 300 mM Arg.HCl, ~700 kDa in the absence",~360 kDa
same,increase in the fluorescence intensity of ANS at the emission maximum,α-crystallin [4],~38%
same,effect on the chaperone-like activity of αB-crystallin,[5],enhanced the activity
same,protection offered by α-crystallin,"[6]; 100 mM Arg.HCl, approximately 13% without",28%
same,protection offered by α-crystallin,[6]; 300 mM Arg.HCl,almost completely prevented
same,prevention of aggregation of insulin by α-crystallin,"[6]; 37° C., 1:2 (w/w) α-crystallin:insulin, 200 mM Arg.HCl, ~36% without additive",completely
same,effect on the chaperone-like activity of α-crystallin,[6]; 37° C.,comparable
same,effect on the chaperone-like activity of αA-crystallin,[7],enhanced the activity
same,effect on the activity of R116C αA-crystallin,R116C αA-crystallin,did not enhance
same,protective ability of α-crystallin against aggregation of ξ-crystallin,α-crystallin [8],~81%
"N=C(N)N [Gdn.HCl, guanidine hydrochloride]",chaperone-like activity of Hsp 16.3,Hsp 16.3,enhanced
same,chaperone-like activity of α-crystallin,α-crystallin [9],enhancement in its chaperone-like activity
same,effect on the chaperone-like activity of α-crystallin,"[6]; 37° C., hydrochloride",comparable
"Cl.NCCCC[C@H](N)C(=O)O [Lys.HCl, Lysine hydrochloride]",near-UV CD spectrum of α-crystallin in the presence of Lys.HCl,α-crystallin [1]; data not shown,change in the near-UV CD spectrum
same,size of α-crystallin in the presence of Lys.HCl,α-crystallin [3]; data not shown,change in the near-UV CD spectrum and size
same,percent protection offered by α-crystallin,"[6]; 37° C., 100 mM Lys.HCl",17%
same,percent protection offered by α-crystallin,"[6]; 37° C., 300 mM Lys.HCl",about 8%
same,effect on the chaperone-like activity of α-crystallin,"[6]; 37° C., hydrochloride",did not enhance; also recorded: decreased the activity
N=C(N)NN [aminoguanidine],cataract formation,diabetic rats,inhibit cataract formation
same,opacification of the lens,Shumiya cataract rats,inhibited the opacification of the lens
